We go through 3 compounds from ChEMBL document CHEMBL4813931, “Boesenmaxane Diterpenoids from Boesenbergia maxwellii” (J Nat Prod, 2021).

One data set has as its system KB. Put plainly: Cytotoxicity against human KB cells measured after 48 hrs by SRB assay. The data set is classed as functional, cell-based. (Sulforhodamine B stains cellular protein and so reports cell mass.)
Another data set relates to ASK. Put plainly: Cytotoxicity against rat ASK cells measured after 48 hrs by SRB assay. The data set is classed as functional, cell-based.
Another data set has as its system P388. Put plainly: Cytotoxicity against mouse P388 cells measured after 48 hrs by SRB assay. The data set is classed as functional, cell-based.
A further data set concerns Escherichia coli. In words: Antibacterial activity against Escherichia coli assessed as bacterial growth inhibition measured after 16 to 18 hrs by Kirby-Bauer disk diffusion method. The data set is classed as functional, organism-based. The note with it: time 16-18 hrs. For orientation: In agar diffusion tests the substance spreads into inoculated agar from a disc or well.

The test system of another data set is HEK293. In words: Cytotoxicity against human HEK293 cells measured after 48 hrs by SRB assay. The data set is classed as cell-based. The note with it: hek293, 48 h.
A short description of data set [1]: Selectivity index, ratio of IC50 for human 1A2 cells to EC50 for Human calicivirus strain MC99 infected in human 1A2 cells. The data set is classed as toxicity, cell-based. The note with it: read-out: Ratio IC50/EC50.
Another data set has as its system T-24. Put plainly: Cytotoxicity against human T-24 cells measured after 48 hrs by SRB assay. The data set is classed as functional, cell-based.
In a further data set the test system is A549. Put plainly: Cytotoxicity against human A549 cells measured after 48 hrs by SRB assay. The data set is classed as functional, cell-based.
The next data set concerns MCF7. In words: Cytotoxicity against human MCF7 cells measured after 48 hrs by SRB assay. The data set is classed as functional, cell-based.
A further data set relates to Candida albicans. Put plainly: Antifungal activity against Candida albicans assessed as fungal growth inhibition measured after 16 to 18 hrs by Kirby-Bauer disk diffusion method. The data set is classed as functional, organism-based. Particulars: time 16-18 hrs.
The next data set relates to Enterococcus faecalis. In words: Antibacterial activity against Enterococcus faecalis assessed as bacterial growth inhibition measured after 16 to 18 hrs by Kirby-Bauer disk diffusion method. The data set is classed as functional, organism-based. Particulars: time 16-18 hrs.
Data set [2] has as its target Human immunodeficiency virus type 1 reverse transcriptase (Human immunodeficiency virus 1) (UniProt Q72547). In words: Inhibition of HIV-1 reverse transcriptase using poly(rA)/oligo(dT)1 as template/primer incubated for 1 hr by pico-green reagent based fluorescence analysis.
A further data set relates to Staphylococcus aureus. Put plainly: Antibacterial activity against Staphylococcus aureus assessed as bacterial growth inhibition measured after 16 to 18 hrs by Kirby-Bauer disk diffusion method. The data set is classed as functional, organism-based. The note with it: time 16-18 hrs.
A further data set has as its system Bacillus cereus. Put plainly: Antibacterial activity against Bacillus cereus assessed as bacterial growth inhibition measured after 16 to 18 hrs by Kirby-Bauer disk diffusion method. Particulars: time 16-18 hrs. The data set is classed as functional, organism-based.
The subject of another data set is HT-29. In words: Cytotoxicity against human HT-29 cells measured after 48 hrs by SRB assay. The data set is classed as functional, cell-based.
Data set [3] in a line: Cytotoxicity against human 1A2 cells measured after 1 hr by XTT assay. The data set is classed as cell-based. Particulars: 1A2, 1 h. A general note: Tetrazolium assays rely on reduction of a dye to a coloured formazan, in cell work by metabolically active cells.

The structures appear in SMILES notation. Active and inactive are the calls of the source. No cut-off for these calls is given here.

As a reminder, the IC50 is the midpoint of a concentration-inhibition curve. A higher IC50 goes with a need for much substance. `CC1(C)CCC[C@]2(C)C3=C(C[C@H](C4=CCOC4=O)C3)C(=O)C[C@@H]12`: the outcome in the data set with KB, in the data set with ASK, in the data set with P388, with T-24, in the data set with A549 and in the data set with MCF7 was inactive. Moreover, in the data set on HT-29, the result was inactive. Further, the inhibition entry (with Escherichia coli; in the data set on Candida albicans; with Enterococcus faecalis; in data set [2]; with Staphylococcus aureus; in the data set on Bacillus cereus) was “inactive” in each case. The Activity entry in the data set on HEK293 is on record as “Non-Toxic”. In addition, the selectivity ratio in data set [1] is greater than 7.2. The compound also came in with an IC50 in data set [3] greater than 398 µM.
On to `CC1(C)CCC[C@]2(C)[C@H]3C[C@@H](C4=CCOC4=O)CC3=CC[C@@H]12`, for which the result with KB, with ASK, with P388, in the data set on T-24, in the data set with A549 and with MCF7 was inactive. For the same compound, the outcome in the data set with HT-29 was inactive. Besides, the inhibition entry with Escherichia coli, in the data set on Candida albicans, in the data set on Enterococcus faecalis, with Staphylococcus aureus and in the data set with Bacillus cereus was “inactive” throughout. Moreover, the Activity result with HEK293 was “Non-Toxic”. This compound came in with an IC50 in data set [3] of 381 µM.
`CC1(C)C(=O)CC[C@]2(C)C3=C(C[C@H](C4=CCOC4=O)C3)C(=O)C[C@@H]12`: the result in the data set with KB, in the data set with ASK, in the data set on P388, in the data set on T-24, with A549 and in the data set with MCF7 was inactive. Also, in the data set with HT-29, the outcome was inactive. Further, the inhibition entry (with Escherichia coli; in the data set with Candida albicans; with Enterococcus faecalis; in data set [2]; with Staphylococcus aureus; in the data set on Bacillus cereus) was “inactive” throughout. The Activity result in the data set with HEK293 is “Non-Toxic”.
